Measured values reported in patent US10035820B2, “Compounds which inhibit neuronal exocytosis” (Lubrizol Advanced Materials, Inc., priority 2012, dated 2018).

Test system: human neuroblastoma cell line
Test: Release of noradrenaline induced by TPA/Ionomycin in a neuroblastoma cell line, quantified by ELISA
Format: cell-based
Details: TPA/ION control = 100
Method: The induction of the release of noradrenaline with TPA (12-O-tetradecanoylphorbol-13-acetate)/Ionomycin enables direct measurement of neuronal exocytosis. For the study of the inhibitory effect of the compounds of the invention on the release of noradrenaline, cells of a human neuroblastoma cell line were pre-incubated (1×10^6 cells/well) for 60 minutes with the compound of the invention (1 μM, 10 μM, 100 μM, 500 μM or 1 mM compounds), and afterward the release of noradrenaline was induced. The release of the noradrenaline neurotransmitter was induced by an 8 minute pre-treatment with a solution of 12-O-tetradecanoylphorbol-13-acetate (TPA) 100 nM, which mobilized the intracellular vesicles which contained the neurotransmitter; followed by a 5 minute incubation with TPA/Ionomycin (100 nM/10 μM), which induced the release of the neurotransmitter contained in these vesicles. […] For this, absorbance at 405 nm was measured in Thermo Scientific Multiskan Ascent equipment.
The blocking of the SNARE complex by the compounds of the invention lead to an inhibition of neuronal exocytosis and therefore, a decrease in the levels of released noradrenaline (Table 6).

Substance: Ac-ENLKRWM-NH2 [Ac-SEQ ID NO: 117-NH2]
- % RELEASED NORADRENALINE Average (1 μM compound): 87.99%
- % RELEASED NORADRENALINE Average (10 μM compound): 83.11%
- % RELEASED NORADRENALINE Average (100 μM compound): 70.76%
- % RELEASED NORADRENALINE Average (500 μM compound): 58.37%
- % RELEASED NORADRENALINE Average (1000 μM compound): 54.64%

Substance: Ac-EELKRWM-NH2 [Ac-SEQ ID NO: 116-NH2]
- % RELEASED NORADRENALINE Average (1 μM compound): 87.59%
- % RELEASED NORADRENALINE Average (10 μM compound): 83.30%
- % RELEASED NORADRENALINE Average (100 μM compound): 62.24%
- % RELEASED NORADRENALINE Average (500 μM compound): 52.82%
- % RELEASED NORADRENALINE Average (1000 μM compound): 43.10%
